Test results published in ChEMBL document CHEMBL5055679, “Discovery of a Novel Androgen Receptor Antagonist Manifesting Evidence to Disrupt the Dimerization of the Ligand-Binding Domain via Attenuating the Hydrogen-Bonding Network Between the Two Monomers” (J Med Chem, 2021).
The source made the active and inactive calls. The rule behind the calls is not given here.

Columns and labels:
MCF7 = assay: Cytotoxicity against human MCF7 cells assessed as reduction in cell viability at 50 uM incubated for 72 hrs by MTT assay; type: functional, cell-based
A549 = assay: Cytotoxicity against human A549 cells assessed as reduction in cell viability at low concentration incubated for 72 hrs by MTT assay; type: functional, cell-based
[1] = target: T1, Mineralocorticoid receptor (Homo sapiens) (UniProt P08235); assay: Agonist activity at mineralocorticoid receptor in human PC-3 cells by dual-Glo luciferase assay; type: cell-based
T1 sequence (whole entry): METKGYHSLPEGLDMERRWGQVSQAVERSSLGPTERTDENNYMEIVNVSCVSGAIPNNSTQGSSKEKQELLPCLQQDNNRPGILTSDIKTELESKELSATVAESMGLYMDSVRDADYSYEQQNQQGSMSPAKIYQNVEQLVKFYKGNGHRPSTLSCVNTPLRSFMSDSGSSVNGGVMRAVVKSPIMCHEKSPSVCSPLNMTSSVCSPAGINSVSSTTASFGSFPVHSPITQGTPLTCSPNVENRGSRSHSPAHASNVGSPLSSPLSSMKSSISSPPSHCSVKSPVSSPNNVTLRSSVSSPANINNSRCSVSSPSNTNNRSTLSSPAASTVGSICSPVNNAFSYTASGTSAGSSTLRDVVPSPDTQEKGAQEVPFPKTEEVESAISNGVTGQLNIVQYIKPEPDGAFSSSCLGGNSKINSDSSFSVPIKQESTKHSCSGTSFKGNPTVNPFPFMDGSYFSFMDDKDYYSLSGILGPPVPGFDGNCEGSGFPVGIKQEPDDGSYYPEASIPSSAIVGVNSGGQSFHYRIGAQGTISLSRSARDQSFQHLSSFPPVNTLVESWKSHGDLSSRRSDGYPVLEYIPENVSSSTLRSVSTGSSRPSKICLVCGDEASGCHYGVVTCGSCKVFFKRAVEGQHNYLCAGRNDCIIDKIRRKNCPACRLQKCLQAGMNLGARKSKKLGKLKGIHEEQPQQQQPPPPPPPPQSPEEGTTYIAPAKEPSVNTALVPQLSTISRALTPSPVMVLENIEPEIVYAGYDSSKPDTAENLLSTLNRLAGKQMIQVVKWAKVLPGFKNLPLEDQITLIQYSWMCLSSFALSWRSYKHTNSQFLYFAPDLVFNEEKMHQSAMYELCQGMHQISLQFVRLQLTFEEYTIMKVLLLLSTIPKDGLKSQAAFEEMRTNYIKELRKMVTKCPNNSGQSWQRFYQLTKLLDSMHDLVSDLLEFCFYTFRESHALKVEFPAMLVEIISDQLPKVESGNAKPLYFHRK

Androgen receptor = target: T2, Androgen receptor (Homo sapiens, UniProt P10275)
T2 sequence (P10275 whole entry): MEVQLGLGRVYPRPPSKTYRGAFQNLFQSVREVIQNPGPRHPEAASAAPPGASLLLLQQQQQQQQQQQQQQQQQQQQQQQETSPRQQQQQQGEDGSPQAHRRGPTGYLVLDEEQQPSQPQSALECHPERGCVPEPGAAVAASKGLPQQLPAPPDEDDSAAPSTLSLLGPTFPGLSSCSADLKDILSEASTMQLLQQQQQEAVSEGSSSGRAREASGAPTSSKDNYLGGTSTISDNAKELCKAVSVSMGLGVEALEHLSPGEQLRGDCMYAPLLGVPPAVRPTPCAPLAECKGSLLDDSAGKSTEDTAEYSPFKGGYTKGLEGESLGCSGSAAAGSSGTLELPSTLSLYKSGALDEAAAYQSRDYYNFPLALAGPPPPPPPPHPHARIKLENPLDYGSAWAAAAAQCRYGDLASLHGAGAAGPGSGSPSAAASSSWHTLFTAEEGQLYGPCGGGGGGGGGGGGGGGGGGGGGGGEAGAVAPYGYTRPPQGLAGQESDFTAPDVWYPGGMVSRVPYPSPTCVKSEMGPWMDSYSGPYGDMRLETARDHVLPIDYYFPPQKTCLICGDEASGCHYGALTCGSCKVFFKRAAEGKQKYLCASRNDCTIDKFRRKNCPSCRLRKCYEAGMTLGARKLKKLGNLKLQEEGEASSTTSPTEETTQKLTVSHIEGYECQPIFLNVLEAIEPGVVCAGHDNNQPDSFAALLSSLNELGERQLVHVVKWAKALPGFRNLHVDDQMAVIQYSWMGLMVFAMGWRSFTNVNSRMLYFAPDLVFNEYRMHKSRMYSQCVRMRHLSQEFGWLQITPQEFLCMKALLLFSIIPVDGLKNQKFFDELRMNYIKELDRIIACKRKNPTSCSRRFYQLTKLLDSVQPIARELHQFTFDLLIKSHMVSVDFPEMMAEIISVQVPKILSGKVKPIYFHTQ
Description: Binding affinity to GST-tagged AR ligand binding domain (unknown origin) measured after 4 hrs by fluorescence polarization assay

Activity [1]: inactive
IC50 (Androgen receptor): 750 nM
SMILES: O=c1cc(C(F)(F)F)c2ccc(OCc3ccc(Br)cc3)cc2o1
Activity (MCF7): Active
Activity (A549): inactive
